Laboratory results as given in PubChem BioAssay (NCI).
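Tested at 5 concentrations; 48 h exposure; 96-well plates; endpoints linearly interpolated, else capped at highest concentration. TGI: concentration producing complete growth inhibition.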 Where a SMILES comes first, the peptide text is derived from it. [ ]: non-standard residue; d: D form. The star is where a group is joined. Phe(4-NO2) = N[CH](Cc1ccc([N+](=O)[O-])cc1)C(=O)O; Boc = CC(C)(C)OC(=O)*; OtBu = CC(C)(C)O*

Legend:
Assay in all cases: NCI tumour cell line growth inhibition, 48 h
[1] = tested on: NCI-H23 lung
[2] = tested on: BT-549 breast
[3] = tested on: SN12C renal
[4] = tested on: OVCAR-5 ovarian
[5] = tested on: OVCAR-8 ovarian
[6] = tested on: HOP-92 NSCLC
[7] = tested on: HS 578T breast
[8] = tested on: SR leukemia
[9] = tested on: EKVX NSCLC
[10] = tested on: SK-MEL-2 melanoma

Compound	TGI [1]	TGI [2]	TGI [3]	TGI [4]	TGI [5]	TGI [6]	TGI [7]	TGI [8]	TGI [9]	TGI [10]
COC(=O)C(Cc1ccc([N+](=O)[O-])cc1)NC(=O)C(CC(=O)OC(C)(C)C)NC(=O)OC(C)(C)C (stereo unspecified) (Boc-Asp(OtBu)-[Phe(4-NO2)]-OMe; configuration not given here)	> 100 µM	> 100 µM	> 100 µM	> 100 µM	> 100 µM	> 100 µM	40.6 µM	54 µM	> 100 µM	> 100 µM
c1csc(-c2ccc(-c3ccc(-c4cccs4)s3)s2)c1	> 100 µM	> 100 µM	> 100 µM	> 100 µM	> 100 µM		> 100 µM	> 100 µM	> 100 µM	> 100 µM
CC(=O)Oc1ccc2c(c1)c1c(OC(C)=O)c3ccccc3c(OC(C)=O)c1n2Cc1cccc(C)c1	> 100 µM	> 100 µM	> 100 µM	> 100 µM	> 100 µM	33.5 µM	78.3 µM	83.1 µM	57.3 µM	48.4 µM
N#Cc1nnc2c3c(-c4ccc(Cl)cc4)c(C#N)c(=O)[nH]c3nn2c1N	24 µM	10.3 µM	6.37 µM	65.4 µM	14 µM	27.9 µM	10.8 µM	16.7 µM	30.9 µM	26.9 µM
CC(=O)c1nccc2c1c(C)nc1ccccc12	> 100 µM	> 100 µM	> 100 µM	> 100 µM	> 100 µM	> 100 µM	96.3 µM	> 100 µM	> 100 µM	> 100 µM
C/C(=C/CC[C@](C)(OC1OC(CO)C(O)C(O)C1O)[C@H]1CC[C@]2(C)[C@@H]1CC[C@@H]1[C@@]3(C)CC[C@H](O)C(C)(C)[C@@H]3C[C@H](O)[C@]12C)CO (stereo partly specified)	> 100 µM	31.2 µM	66.4 µM	> 100 µM	> 100 µM	> 100 µM	55.3 µM	> 100 µM	> 100 µM	
O=C(O)c1ccccc1-c1ccccc1C(=O)c1ccccc1	> 100 µM	> 100 µM	> 100 µM	> 100 µM	> 100 µM	> 100 µM	> 100 µM	> 100 µM	> 100 µM	> 100 µM
O=C(NCCCCl)c1c(O)c2ccccc2[nH]c1=O	> 100 µM	> 100 µM	> 100 µM	> 100 µM	> 100 µM	> 75.7 µM	> 100 µM	> 100 µM	> 100 µM	> 100 µM
C=C(CCC(C(=O)O)C1CCC2(C)C3=C(CCC12C)C1(C)CCC(O)C(C)(C)C1CC3)C(C)C (stereo unspecified)	> 100 µM	> 100 µM	> 100 µM	> 100 µM	47.2 µM	> 100 µM	> 100 µM	27.2 µM	> 100 µM	> 100 µM
COc1ccc(NC(=O)C2=C(SC)C(=O)N=C2N)cc1	> 100 µM	> 100 µM			> 100 µM	> 100 µM	> 100 µM	> 100 µM	> 100 µM	> 100 µM
